Measurements from the supplement of paper PMC8149375.

Experiments:
Conditions in all cases: treatment: drug + dasatinib (fixed dose, not stated); 5 days
[1] = test system: 769-P; test: AUC of dose-response viability curve, drug + dasatinib, normalised to DMSO (arbitrary (AUC of normalised viability)); higher = less growth inhibition
Experimental: (§1)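 Primary HTS combination arm: 8 RCC cell lines treated with 8 doses (up to 10 uM) of each library drug plus a fixed dose of dasatinib (dose not stated) for 5 days; viability read by CellTiter-Glo and normalised to DMSO. GI50 was fitted with XLfit, AUC is the area under the dose-response curve, and minimum viability is the lowest fraction of DMSO viability across doses.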

[2] = test system: SN12C; test: as above
Experimental: as §1

[3] = test system: ACHN; test: as above
Experimental: as §1

[4] = test system: TK-10; test: as above
Experimental: as §1

[5] = test system: A498; test: as above
Experimental: as §1

[6] = test system: UO-31; test: as above
Experimental: as §1

[7] = test system: 786-O; test: as above
Experimental: as §1

[8] = test system: CAKI-1; test: as above
Experimental: as §1

[9] = test system: 769-P; test: GI50 of drug in presence of dasatinib; higher = less potent
Experimental: as §1

[10] = test system: SN12C; test: as above
Experimental: as §1

[11] = test system: ACHN; test: as above
Experimental: as §1

[12] = test system: TK-10; test: as above
Experimental: as §1

[13] = test system: A498; test: as above
Experimental: as §1

[14] = test system: UO-31; test: as above
Experimental: as §1

[15] = test system: 786-O; test: as above
Experimental: as §1

[16] = test system: CAKI-1; test: as above
Experimental: as §1

[17] = test system: 769-P; test: minimum viability across doses, drug + dasatinib, relative to DMSO (fraction); higher = less growth inhibition
Experimental: as §1

[18] = test system: SN12C; test: as above
Experimental: as §1

[19] = test system: ACHN; test: as above
Experimental: as §1

[20] = test system: TK-10; test: as above
Experimental: as §1

[21] = test system: A498; test: as above
Experimental: as §1

[22] = test system: UO-31; test: as above
Experimental: as §1

[23] = test system: 786-O; test: as above
Experimental: as §1

[24] = test system: CAKI-1; test: as above
Experimental: as §1

With CNC(=O)c1cc(Oc2ccc(NC(=O)Nc3ccc(Cl)c(C(F)(F)F)c3)cc2)ccn1.Cc1ccc(S(=O)(=O)O)cc1 [Sorafenib (Nexavar)] + Cc1nc(Nc2ncc(C(=O)Nc3c(C)cccc3Cl)s2)cc(N2CCN(CCO)CC2)n1 [dasatinib] the “AUC of dose-response viability curve” value [1] was 2.31, the “AUC of dose-response viability curve” value [2] was 2.52 and the “AUC of dose-response viability curve” value [3] was 2.33. For the same compound, the “AUC of dose-response viability curve” value [4] was 2.72, the “AUC of dose-response viability curve” value [5] was 2.94 and the “AUC of dose-response viability curve” value [6] was 2.41. For the same compound, the “AUC of dose-response viability curve” value [7] was 2.32, the “AUC of dose-response viability curve” value [8] was 2.42 and the GI50 of drug [9] was 3.77 µM. It also gave a GI50 of drug [10] of 5.96 µM, a GI50 of drug [11] of 3.17 µM and a GI50 of drug [12] of 9.08 µM. For the same compound, the GI50 of drug [13] was 7.05 µM, the GI50 of drug [14] was 1.53 µM and the GI50 of drug [15] was 2.2 µM. The GI50 of drug [16] was 4.81 µM, the “minimum viability across doses” value [17] was 0.249 and the “minimum viability across doses” value [18] was 0.265. For the same compound, the “minimum viability across doses” value [19] was 0.0615, the “minimum viability across doses” value [20] was 0.471 and the “minimum viability across doses” value [21] was 0.245. The “minimum viability across doses” value [22] was 0.138, the “minimum viability across doses” value [23] was 0.174 and the “minimum viability across doses” value [24] was 0.118.
For CNC(=O)c1ccc(-c2cnc3ncc(Cc4ccc5ncccc5c4)n3n2)cc1F + Cc1nc(Nc2ncc(C(=O)Nc3c(C)cccc3Cl)s2)cc(N2CCN(CCO)CC2)n1 [dasatinib], the “AUC of dose-response viability curve” value [1] was 2.42, the “AUC of dose-response viability curve” value [2] was 2.42 and the “AUC of dose-response viability curve” value [3] was 2.05. The “AUC of dose-response viability curve” value [4] was 2.44, the “AUC of dose-response viability curve” value [5] was 3.63 and the “AUC of dose-response viability curve” value [6] was 4.11. The “AUC of dose-response viability curve” value [7] was 2.19, the “AUC of dose-response viability curve” value [8] was 2.26 and the GI50 of drug [9] was 7.57 µM. The GI50 of drug [10] was > 10 µM, the GI50 of drug [11] was 9.07 µM and the GI50 of drug [12] was > 10 µM. For the same compound, the GI50 of drug [13] was > 10 µM, the GI50 of drug [14] was > 10 µM and the GI50 of drug [15] was > 10 µM. For the same compound, the GI50 of drug [16] was > 10 µM, the “minimum viability across doses” value [17] was 0.457 and the “minimum viability across doses” value [18] was 0.659. The “minimum viability across doses” value [19] was 0.497, the “minimum viability across doses” value [20] was 0.656 and the “minimum viability across doses” value [21] was 0.918. The “minimum viability across doses” value [22] was 0.991, the “minimum viability across doses” value [23] was 0.576 and the “minimum viability across doses” value [24] was 0.571.
For O=C(NOC[C@H](O)CO)c1ccc(F)c(F)c1Nc1ccc(I)cc1F + Cc1nc(Nc2ncc(C(=O)Nc3c(C)cccc3Cl)s2)cc(N2CCN(CCO)CC2)n1 [dasatinib], the “AUC of dose-response viability curve” value [1] was 1.42, the “AUC of dose-response viability curve” value [2] was 1.75 and the “AUC of dose-response viability curve” value [3] was 1.36. For the same compound, the “AUC of dose-response viability curve” value [4] was 1.91, the “AUC of dose-response viability curve” value [5] was 1.85 and the “AUC of dose-response viability curve” value [6] was 1.6. For the same compound, the “AUC of dose-response viability curve” value [7] was 1.85, the “AUC of dose-response viability curve” value [8] was 1.51 and the GI50 of drug [9] was 0.0744 µM. The GI50 of drug [10] was 0.233 µM, the GI50 of drug [11] was 0.0135 µM and the GI50 of drug [12] was 0.335 µM. It also gave a GI50 of drug [13] of 0.259 µM, a GI50 of drug [14] of 0.141 µM and a GI50 of drug [15] of 0.266 µM. For the same compound, the GI50 of drug [16] was 0.148 µM, the “minimum viability across doses” value [17] was 0.173 and the “minimum viability across doses” value [18] was 0.308. The “minimum viability across doses” value [19] was 0.3, the “minimum viability across doses” value [20] was 0.296 and the “minimum viability across doses” value [21] was 0.302. For the same compound, the “minimum viability across doses” value [22] was 0.0632, the “minimum viability across doses” value [23] was 0.377 and the “minimum viability across doses” value [24] was 0.0721.
Nc1ccc(C(=O)Nc2cccc(-c3nc(N4CCOCC4)c4oc5ncccc5c4n3)c2)cn1 + Cc1nc(Nc2ncc(C(=O)Nc3c(C)cccc3Cl)s2)cc(N2CCN(CCO)CC2)n1 [dasatinib] was tested, and the “AUC of dose-response viability curve” value [1] was 1.99, the “AUC of dose-response viability curve” value [2] was 2.16 and the “AUC of dose-response viability curve” value [3] was 1.68. For the same compound, the “AUC of dose-response viability curve” value [4] was 2.16, the “AUC of dose-response viability curve” value [5] was 3.03 and the “AUC of dose-response viability curve” value [6] was 3.17. The “AUC of dose-response viability curve” value [7] was 1.81, the “AUC of dose-response viability curve” value [8] was 1.61 and the GI50 of drug [9] was 0.85 µM. For the same compound, the GI50 of drug [10] was 2.59 µM, the GI50 of drug [11] was 0.361 µM and the GI50 of drug [12] was 0.973 µM. The GI50 of drug [13] was 6.74 µM, the GI50 of drug [14] was 1.51 µM and the GI50 of drug [15] was 0.476 µM. For the same compound, the GI50 of drug [16] was 0.256 µM, the “minimum viability across doses” value [17] was 0.0371 and the “minimum viability across doses” value [18] was 0.345. The “minimum viability across doses” value [19] was 0.152, the “minimum viability across doses” value [20] was 0.0664 and the “minimum viability across doses” value [21] was 0.283. For the same compound, the “minimum viability across doses” value [22] was 0.0122, the “minimum viability across doses” value [23] was 0.00383 and the “minimum viability across doses” value [24] was 0.0783.
With C#Cc1cccc(Nc2ncnc3cc(OCCOC)c(OCCO)cc23)c1 + Cc1nc(Nc2ncc(C(=O)Nc3c(C)cccc3Cl)s2)cc(N2CCN(CCO)CC2)n1 [dasatinib] the “AUC of dose-response viability curve” value [1] was 2.11, the “AUC of dose-response viability curve” value [2] was 2.43 and the “AUC of dose-response viability curve” value [3] was 1.13. The “AUC of dose-response viability curve” value [4] was 2.1, the “AUC of dose-response viability curve” value [5] was 3.63 and the “AUC of dose-response viability curve” value [6] was 4.6. The “AUC of dose-response viability curve” value [7] was 2.72, the “AUC of dose-response viability curve” value [8] was 2.09 and the GI50 of drug [9] was 0.76 µM. For the same compound, the GI50 of drug [10] was > 10 µM, the GI50 of drug [11] was 0.00394 µM and the GI50 of drug [12] was 1.3 µM. For the same compound, the GI50 of drug [13] was > 10 µM, the GI50 of drug [14] was 9.83 µM and the GI50 of drug [15] was > 10 µM. For the same compound, the GI50 of drug [16] was 1.01 µM, the “minimum viability across doses” value [17] was 0.301 and the “minimum viability across doses” value [18] was 0.415. The “minimum viability across doses” value [19] was 0.108, the “minimum viability across doses” value [20] was 0.323 and the “minimum viability across doses” value [21] was 0.973. For the same compound, the “minimum viability across doses” value [22] was 0.439, the “minimum viability across doses” value [23] was 0.489 and the “minimum viability across doses” value [24] was 0.125.
For CN1CCN(c2nc(C3=C(c4c[nH]c5ccccc45)C(=O)NC3=O)c3ccccc3n2)CC1 [Sotrastaurin (AEB071)] + Cc1nc(Nc2ncc(C(=O)Nc3c(C)cccc3Cl)s2)cc(N2CCN(CCO)CC2)n1 [dasatinib], the “AUC of dose-response viability curve” value [1] was 2.3, the “AUC of dose-response viability curve” value [2] was 2.45 and the “AUC of dose-response viability curve” value [3] was 2.04. For the same compound, the “AUC of dose-response viability curve” value [4] was 2.84, the “AUC of dose-response viability curve” value [5] was 3.6 and the “AUC of dose-response viability curve” value [6] was 4.79. The “AUC of dose-response viability curve” value [7] was 3.14, the “AUC of dose-response viability curve” value [8] was 2.44 and the GI50 of drug [9] was > 10 µM. For the same compound, the GI50 of drug [10] was > 10 µM, the GI50 of drug [11] was > 10 µM and the GI50 of drug [12] was > 10 µM. The GI50 of drug [13] was > 10 µM, the GI50 of drug [14] was > 10 µM and the GI50 of drug [15] was > 10 µM. For the same compound, the GI50 of drug [16] was > 10 µM, the “minimum viability across doses” value [17] was 0.673 and the “minimum viability across doses” value [18] was 0.661. The “minimum viability across doses” value [19] was 0.536, the “minimum viability across doses” value [20] was 0.663 and the “minimum viability across doses” value [21] was 0.904. For the same compound, the “minimum viability across doses” value [22] was 1.16, the “minimum viability across doses” value [23] was 0.674 and the “minimum viability across doses” value [24] was 0.555.
For CC1(COc2ccc3c(c2)ncn3-c2ccc3cccc(N4CCC(N)CC4)c3n2)COC1 + Cc1nc(Nc2ncc(C(=O)Nc3c(C)cccc3Cl)s2)cc(N2CCN(CCO)CC2)n1 [dasatinib], the “AUC of dose-response viability curve” value [1] was 1.8, the “AUC of dose-response viability curve” value [2] was 2.14 and the “AUC of dose-response viability curve” value [3] was 1.96. For the same compound, the “AUC of dose-response viability curve” value [4] was 2.42, the “AUC of dose-response viability curve” value [5] was 2.83 and the “AUC of dose-response viability curve” value [6] was 2.77. For the same compound, the “AUC of dose-response viability curve” value [7] was 1.64, the “AUC of dose-response viability curve” value [8] was 1.9 and the GI50 of drug [9] was 1.71 µM. For the same compound, the GI50 of drug [10] was 1.28 µM, the GI50 of drug [11] was 1.92 µM and the GI50 of drug [12] was 3.33 µM. For the same compound, the GI50 of drug [13] was 2.54 µM, the GI50 of drug [14] was 2.23 µM and the GI50 of drug [15] was 0.102 µM. For the same compound, the GI50 of drug [16] was 0.928 µM, the “minimum viability across doses” value [17] was 0.222 and the “minimum viability across doses” value [18] was 0.0349. The “minimum viability across doses” value [19] was 0.0128, the “minimum viability across doses” value [20] was 0.181 and the “minimum viability across doses” value [21] was 0.0198. For the same compound, the “minimum viability across doses” value [22] was 0.0108, the “minimum viability across doses” value [23] was 0.00575 and the “minimum viability across doses” value [24] was 0.192.
